From patent US10722514B2 (FLX Bio, Inc., priority 2017, dated 2020)
pIC50: −log10 of the molar value. Where a name gives a salt, the structure may show the parent alone. Read-outs that look alike come from different tables or passages of the source.

Biological target: T1, recombinant full-length USP7 (Homo sapiens, UniProt Q93009)
T1 construct: A 25 μl reaction volume containing recombinant full-length USP7 (62 pM)
Test: USP7-mediated ubiquitin-rhodamine cleavage assay
Type: biochemical
Conditions: recombinant full-length USP7 62 pM, ubiquitin-rhodamine 100 nM, 1 hour reaction at room temperature
Procedure, shortened: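 Compounds are first incubated with 62 pM enzyme for 30 min at room temperature in pH 7.3 HEPES buffer containing TCEP and BSA. Cleavage of 100 nM ubiquitin-rhodamine proceeds for 1 h before an acid quench, and IC50 is derived from fluorescence.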

[1] = 30-minute incubation with compound, read-out: Potency: USP7 IC50
[2] = 30-minute pre-incubation, read-out: Potency (USP7 IC50)

T1 sequence (Q93009 whole entry): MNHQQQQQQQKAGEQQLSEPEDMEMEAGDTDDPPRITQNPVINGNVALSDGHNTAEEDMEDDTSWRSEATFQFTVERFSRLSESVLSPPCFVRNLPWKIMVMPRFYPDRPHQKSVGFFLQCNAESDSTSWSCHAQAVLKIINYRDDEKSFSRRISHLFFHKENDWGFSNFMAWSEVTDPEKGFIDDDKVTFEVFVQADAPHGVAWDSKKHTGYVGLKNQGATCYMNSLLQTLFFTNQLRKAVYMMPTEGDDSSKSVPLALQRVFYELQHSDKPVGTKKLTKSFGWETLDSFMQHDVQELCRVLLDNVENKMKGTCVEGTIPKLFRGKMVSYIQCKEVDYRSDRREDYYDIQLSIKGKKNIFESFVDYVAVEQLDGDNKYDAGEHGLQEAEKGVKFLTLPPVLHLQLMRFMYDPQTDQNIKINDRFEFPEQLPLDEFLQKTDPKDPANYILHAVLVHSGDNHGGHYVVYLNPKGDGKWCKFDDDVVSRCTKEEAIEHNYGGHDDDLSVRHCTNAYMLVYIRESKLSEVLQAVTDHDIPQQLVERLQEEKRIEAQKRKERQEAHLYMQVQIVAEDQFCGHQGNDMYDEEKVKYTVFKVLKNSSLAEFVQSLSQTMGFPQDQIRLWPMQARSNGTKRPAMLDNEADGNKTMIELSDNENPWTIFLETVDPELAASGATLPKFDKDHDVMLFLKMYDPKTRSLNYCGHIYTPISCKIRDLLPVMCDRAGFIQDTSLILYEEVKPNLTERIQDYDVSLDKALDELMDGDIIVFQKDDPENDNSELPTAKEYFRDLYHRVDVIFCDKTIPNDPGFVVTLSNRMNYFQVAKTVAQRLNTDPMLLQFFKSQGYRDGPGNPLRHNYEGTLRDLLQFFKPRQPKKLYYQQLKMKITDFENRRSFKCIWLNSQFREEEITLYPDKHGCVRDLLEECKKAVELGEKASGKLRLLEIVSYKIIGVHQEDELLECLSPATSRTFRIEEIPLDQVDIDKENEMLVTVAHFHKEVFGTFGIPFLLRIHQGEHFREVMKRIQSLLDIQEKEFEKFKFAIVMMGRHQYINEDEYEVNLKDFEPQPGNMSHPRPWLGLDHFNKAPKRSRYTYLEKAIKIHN

| SMILES | pIC50 [1] | pIC50 [2] |
| --- | --- | --- |
| CCC(O)c1cc2nccc(-c3cc(Cl)cc(C)c3O[C@H]3CCCN(C)C3)c2s1 (stereo partly drawn) [Example 186, 1-(7-(5-Chloro-3-methyl-2-(((S)-1-methylpiperidin-3-yl)oxy)phenyl)thieno[3,2-b]pyridin-2-yl)propan-1-ol] | 4.52 to 5.00 | – |
| Cc1cc(Cl)cc(-c2ccnc3cc(CN4C(=O)CCC4=O)sc23)c1O[C@@H]1CCNC[C@@H]1C [Example 303, 1-[[7-[5-chloro-3-methyl-2-[[(3S,4R)-3-methyl-4-piperidyl]oxy]phenyl]thieno[3,2-b]pyridin-2-yl]methyl]pyrrolidine-2,5-dione] | > 6.00 | – |
| Cc1cc(Cl)cc(-c2ccnc3cc(CN4C(=O)CCCC4=O)sc23)c1OC1CCNCC1 [Example 235, 1-((7-(5-Chloro-3-methyl-2-(piperidin-4-yloxy)phenyl)thieno[3,2-b]pyridin-2-yl)methyl)piperidine-2,6-dione] | > 6.00 | – |
| Cc1cc(Cl)cc(-c2ccnc3cc(Cn4c(=O)ccn(C)c4=O)sc23)c1OC1CN2CCC1C2 [Example 529, 3-[[7-[2-[[(1R,3R,4S)-1-azabicyclo[2.2.1]heptan-3-yl]oxy]-5-chloro-3-methyl-phenyl]thieno[3,2-b]pyridin-2-yl]methyl]-1-methyl-pyrimidine-2,4-dione] | – | > 6.00 |
| Cc1cc(Cl)cc(-c2ccnc3cc(CN4C(=O)C5C(C4=O)C5(C)C)sc23)c1O[C@@H]1CNC[C@@H]1C (stereo partly drawn) [Example 328, 3-[[7-[5-chloro-3-methyl-2-[(3S,4S)-4-methylpyrrolidin-3-yl]oxy-phenyl]thieno[3,2-b]pyridin-2-yl]methyl]-6,6-dimethyl-3-azabicyclo[3.1.0]hexane-2,4-dione] | > 6.00 | – |
| Cc1cc(Cl)cc(-c2ccnc3cc(Cn4c(=O)ccn(C)c4=O)sc23)c1O[C@@H]1CCNC[C@]1(C)F [Example 544, 3-[[7-[5-chloro-2-[[(3S,4R)-3-fluoro-3-methyl-4-piperidyl]oxy]-3-methyl-phenyl]thieno[3,2-b]pyridin-2-yl]methyl]-1-methyl-pyrimidine-2,4-dione; 2,2,2-trifluoroacetic acid] | – | > 6.00 |
| Cc1cc(Cl)cc(-c2ncnc3cc(Cn4c(=O)ccn(CC(F)(F)F)c4=O)sc23)c1O[C@@H]1CCNC[C@@H]1F [Example 170, 3-((4-(5-Chloro-2-(((3S,4R)-3-fluoropiperidin-4-yl)oxy)-3-methylphenyl)thieno[3,2-d]pyrimidin-6-yl)methyl)-1-(2,2,2-trifluoroethyl)pyrimidine-2,4(1H,3H)-dione] | > 6.00 | – |
| Cc1cc(Cl)cc(-c2ccnc3cc(Cn4c(=O)ccn(CC(F)(F)F)c4=O)sc23)c1O[C@@H]1CN[C@H](C)C1 [Example 633, 3-[[7-[5-chloro-3-methyl-2-[(3S,5R)-5-methylpyrrolidin-3-yl]oxy-phenyl]thieno[3,2-b]pyridin-2-yl]methyl]-1-(2,2,2-trifluoroethyl)pyrimidine-2,4-dione] | – | > 6.00 |
| Cc1cc(Cl)cc(-c2ccnc3cc(CN4C(=O)C5C(C4=O)C5(C)C)sc23)c1O[C@H]1CCCNC1 (stereo partly drawn) [Example 436, 3-[[7-[5-chloro-3-methyl-2-[[(3S)-3-piperidyl]oxy]phenyl]thieno[3,2-b]pyridin-2-yl]methyl]-6,6-dimethyl-3-azabicyclo[3.1.0]hexane-2,4-dione dihydrochloride] | – | > 6.00 |
| Cc1cc(Cl)cc(-c2ccnc3cc(CN4C(=O)CCC4C(F)(F)F)sc23)c1O[C@@H]1CNC[C@@H]1F (stereo partly drawn) [Example 147, 1-((7-(5-Chloro-2-(((3R,4S)-4-fluoropyrrolidin-3-yl)oxy)-3-methylphenyl)thieno[3,2-b]pyridin-2-yl)methyl)-5-(trifluoromethyl)pyrrolidin-2-one] | > 6.00 | – |
| CCC(O)c1cc2nccc(-c3cc(Cl)cc(C)c3OCC3CNC3)c2s1 (centres unmarked) [Example 14, 1-(7-(2-(Azetidin-3-ylmethoxy)-5-chloro-3-methylphenyl)thieno[3,2-b]pyridin-2-yl)propan-1-ol] | 5.00 to 6.00 | – |
| Cc1cc(Cl)cc(-c2ncnc3cc(CN4C(=O)c5ccccc5C4=O)sc23)c1O[C@@H]1CNC[C@@H]1F [Example 149, 2-((4-(5-Chloro-2-(((3R,4S)-4-fluoropyrrolidin-3-yl)oxy)-3-methylphenyl)thieno[3,2-d]pyrimidin-6-yl)methyl)isoindoline-1,3-dione] | > 6.00 | – |
| Cc1cc(Cl)cc(-c2ccnc3cc(CN4C(=O)CCC4=O)sc23)c1O[C@@H]1CN(CCO)C[C@@H]1F [Example 302, 1-[[7-[5-chloro-2-[(3R,4S)-4-fluoro-1-(2-hydroxyethyl)pyrrolidin-3-yl]oxy-3-methyl-phenyl]thieno[3,2-b]pyridin-2-yl]methyl]pyrrolidine-2,5-dione] | > 6.00 | – |
| OCc1cc2nccc(-c3cc(F)cc(Br)c3O[C@H]3CCCNC3)c2s1 [Example 169, (S)-(7-(3-Bromo-5-fluoro-2-(piperidin-3-yloxy)phenyl)thieno[3,2-b]pyridin-2-yl)methanol] | 4.52 to 5.00 | – |
